In paper PMC10885153, “Membrane Permeability in a Large Macrocyclic Peptide Driven by a Saddle-Shaped Conformation” (Journal of the American Chemical Society, 2024) one finds Papp data, which are given here for 24 molecules.

Molecules are shown by their SMILES. Positions of bridges follow the written chain, without caps; N, C: chain ends. Non-standard residues stand in square brackets, D forms with d. Residues, ends and D or L forms follow the SMILES beside them. NMeC = CN[C@@H](CS)C(=O)O; NMeA = CN[C@@H](C)C(=O)O; dAbu = CC[C@@H](N)C(=O)O; dNMeA = CN[C@H](C)C(=O)O; Abu = CC[C@H](N)C(=O)O; Nleu = CC(C)CNCC(=O)O; NEtG = CCNCC(=O)O

As a reminder, the Papp is the rate of passage across a membrane or cell layer, normalised by area and donor concentration.

The nature of the data set: in vitro. Particulars: PAMPA, pH 7.4, PAMPA Pe_avg. Background: PAMPA measures passive passage across an artificial lipid membrane.
In turn, `CCOC(=O)[C@@H]1CSCC(=O)N[C@@H](CC)C(=O)N(C)[C@@H](C)C(=O)N[C@@H](CC(C)C)C(=O)N2CCC[C@@H]2C(=O)N(CC)CC(=O)N[C@@H](CC(C)C)C(=O)N(C)[C@H](C)C(=O)N[C@@H](CC(C)C)C(=O)N1C` [JF206_ADL_LLLD_Ethyl] ({CH2CO}-[Abu][NMeA]L[dP][NEtG]L[dNMeA]L[NMeC]-OEt; thioether N-9) returned a Papp at 10 µM of 0.326 ×10⁻⁶ cm/s.
The figure for `CCOC(=O)[C@@H]1CSCC(=O)N[C@H](CC)C(=O)N(C)[C@@H](C)C(=O)N[C@H](CC(C)C)C(=O)N2CCC[C@H]2C(=O)N(CC)CC(=O)N[C@H](CC(C)C)C(=O)N(C)[C@H](C)C(=O)N[C@@H](CC(C)C)C(=O)N1C` [JF206_ALD_DDDD_Ethyl] ({CH2CO}-[dAbu][NMeA][dL]P[NEtG][dL][dNMeA]L[NMeC]-OEt; thioether N-9) is 0.194 ×10⁻⁶ cm/s; for `CCOC(=O)[C@@H]1CSCC(=O)N[C@H](CC)C(=O)N(C)[C@@H](C)C(=O)N[C@H](CC(C)C)C(=O)N2CCC[C@H]2C(=O)N(CC)CC(=O)N[C@H](CC(C)C)C(=O)N(C)[C@@H](C)C(=O)N[C@@H](CC(C)C)C(=O)N1C` [JF206_ALD_DDDL_Ethyl] ({CH2CO}-[dAbu][NMeA][dL]P[NEtG][dL][NMeA]L[NMeC]-OEt; thioether N-9) it is 0.18 ×10⁻⁶ cm/s; for `CCOC(=O)[C@@H]1CSCC(=O)N[C@H](CC)C(=O)N(C)[C@@H](C)C(=O)N[C@H](CC(C)C)C(=O)N2CCC[C@H]2C(=O)N(CC(C)C)CC(=O)N[C@H](CC(C)C)C(=O)N(C)[C@@H](C)C(=O)N[C@@H](CC(C)C)C(=O)N1C` [JF206_ALD_DDDL_Isobutyl] ({CH2CO}-[dAbu][NMeA][dL]P[Nleu][dL][NMeA]L[NMeC]-OEt; thioether N-9) it is 0.556 ×10⁻⁶ cm/s.
The figure for `CCOC(=O)[C@@H]1CSCC(=O)N[C@H](CC)C(=O)N(C)[C@@H](C)C(=O)N[C@H](CC(C)C)C(=O)N2CCC[C@H]2C(=O)N(CC)CC(=O)N[C@@H](CC(C)C)C(=O)N(C)[C@H](C)C(=O)N[C@@H](CC(C)C)C(=O)N1C` [JF206_ALD_DDLD_Ethyl] ({CH2CO}-[dAbu][NMeA][dL]P[NEtG]L[dNMeA]L[NMeC]-OEt; thioether N-9) is 0.007 ×10⁻⁶ cm/s; for `CCOC(=O)[C@@H]1CSCC(=O)N[C@H](CC)C(=O)N(C)[C@@H](C)C(=O)N[C@H](CC(C)C)C(=O)N2CCC[C@H]2C(=O)N(CC(C)C)CC(=O)N[C@@H](CC(C)C)C(=O)N(C)[C@H](C)C(=O)N[C@@H](CC(C)C)C(=O)N1C` [JF206_ALD_DDLD_Isobutyl] ({CH2CO}-[dAbu][NMeA][dL]P[Nleu]L[dNMeA]L[NMeC]-OEt; thioether N-9) it is 0.063 ×10⁻⁶ cm/s.
As for `CCOC(=O)[C@@H]1CSCC(=O)N[C@H](CC)C(=O)N(C)[C@@H](C)C(=O)N[C@H](CC(C)C)C(=O)N2CCC[C@H]2C(=O)N(CC)CC(=O)N[C@@H](CC(C)C)C(=O)N(C)[C@@H](C)C(=O)N[C@@H](CC(C)C)C(=O)N1C` [JF206_ALD_DDLL_Ethyl] ({CH2CO}-[dAbu][NMeA][dL]P[NEtG]L[NMeA]L[NMeC]-OEt; thioether N-9), the Papp at 10 µM is 0.00548 ×10⁻⁶ cm/s.
The figure for `CCOC(=O)[C@@H]1CSCC(=O)N[C@H](CC)C(=O)N(C)[C@@H](C)C(=O)N[C@H](CC(C)C)C(=O)N2CCC[C@H]2C(=O)N(CC(C)C)CC(=O)N[C@@H](CC(C)C)C(=O)N(C)[C@@H](C)C(=O)N[C@@H](CC(C)C)C(=O)N1C` [JF206_ALD_DDLL_Isobutyl] ({CH2CO}-[dAbu][NMeA][dL]P[Nleu]L[NMeA]L[NMeC]-OEt; thioether N-9) is 0.075 ×10⁻⁶ cm/s.
With `CCOC(=O)[C@@H]1CSCC(=O)N[C@H](CC)C(=O)N(C)[C@@H](C)C(=O)N[C@@H](CC(C)C)C(=O)N2CCC[C@H]2C(=O)N(CC(C)C)CC(=O)N[C@H](CC(C)C)C(=O)N(C)[C@H](C)C(=O)N[C@@H](CC(C)C)C(=O)N1C` [JF206_ALD_DLDD_Isobutyl] ({CH2CO}-[dAbu][NMeA]LP[Nleu][dL][dNMeA]L[NMeC]-OEt; thioether N-9) the figure was 0.038 ×10⁻⁶ cm/s; with `CCOC(=O)[C@@H]1CSCC(=O)N[C@H](CC)C(=O)N(C)[C@@H](C)C(=O)N[C@@H](CC(C)C)C(=O)N2CCC[C@H]2C(=O)N(CC)CC(=O)N[C@H](CC(C)C)C(=O)N(C)[C@@H](C)C(=O)N[C@@H](CC(C)C)C(=O)N1C` [JF206_ALD_DLDL_Ethyl] ({CH2CO}-[dAbu][NMeA]LP[NEtG][dL][NMeA]L[NMeC]-OEt; thioether N-9), 0.027 ×10⁻⁶ cm/s.
With `CCOC(=O)[C@@H]1CSCC(=O)N[C@H](CC)C(=O)N(C)[C@@H](C)C(=O)N[C@@H](CC(C)C)C(=O)N2CCC[C@H]2C(=O)N(CC(C)C)CC(=O)N[C@H](CC(C)C)C(=O)N(C)[C@@H](C)C(=O)N[C@@H](CC(C)C)C(=O)N1C` [JF206_ALD_DLDL_Isobutyl] ({CH2CO}-[dAbu][NMeA]LP[Nleu][dL][NMeA]L[NMeC]-OEt; thioether N-9) the figure was 0.248 ×10⁻⁶ cm/s; with `CCOC(=O)[C@@H]1CSCC(=O)N[C@H](CC)C(=O)N(C)[C@@H](C)C(=O)N[C@@H](CC(C)C)C(=O)N2CCC[C@H]2C(=O)N(CC)CC(=O)N[C@@H](CC(C)C)C(=O)N(C)[C@H](C)C(=O)N[C@@H](CC(C)C)C(=O)N1C` [JF206_ALD_DLLD_Ethyl] ({CH2CO}-[dAbu][NMeA]LP[NEtG]L[dNMeA]L[NMeC]-OEt; thioether N-9), 0.016 ×10⁻⁶ cm/s.
For `CCOC(=O)[C@@H]1CSCC(=O)N[C@H](CC)C(=O)N(C)[C@@H](C)C(=O)N[C@@H](CC(C)C)C(=O)N2CCC[C@H]2C(=O)N(CC(C)C)CC(=O)N[C@@H](CC(C)C)C(=O)N(C)[C@H](C)C(=O)N[C@@H](CC(C)C)C(=O)N1C` [JF206_ALD_DLLD_Isobutyl] ({CH2CO}-[dAbu][NMeA]LP[Nleu]L[dNMeA]L[NMeC]-OEt; thioether N-9), the apparent permeability coefficient (Papp) at 10 µM worked out at 0.117 ×10⁻⁶ cm/s.
The figure for `CCOC(=O)[C@@H]1CSCC(=O)N[C@H](CC)C(=O)N(C)[C@@H](C)C(=O)N[C@@H](CC(C)C)C(=O)N2CCC[C@H]2C(=O)N(CC(C)C)CC(=O)N[C@@H](CC(C)C)C(=O)N(C)[C@@H](C)C(=O)N[C@@H](CC(C)C)C(=O)N1C` [JF206_ALD_DLLL_Isobutyl] ({CH2CO}-[dAbu][NMeA]LP[Nleu]L[NMeA]L[NMeC]-OEt; thioether N-9) is 0.598 ×10⁻⁶ cm/s; for `CCOC(=O)[C@@H]1CSCC(=O)N[C@@H](CC)C(=O)N(C)[C@@H](C)C(=O)N[C@H](CC(C)C)C(=O)N2CCC[C@H]2C(=O)N(CC)CC(=O)N[C@H](CC(C)C)C(=O)N(C)[C@H](C)C(=O)N[C@@H](CC(C)C)C(=O)N1C` [JF206_ALL_LDDD_Ethyl] ({CH2CO}-[Abu][NMeA][dL]P[NEtG][dL][dNMeA]L[NMeC]-OEt; thioether N-9) it is 0.623 ×10⁻⁶ cm/s; for `CCOC(=O)[C@@H]1CSCC(=O)N[C@@H](CC)C(=O)N(C)[C@@H](C)C(=O)N[C@H](CC(C)C)C(=O)N2CCC[C@H]2C(=O)N(CC)CC(=O)N[C@@H](CC(C)C)C(=O)N(C)[C@H](C)C(=O)N[C@@H](CC(C)C)C(=O)N1C` [JF206_ALL_LDLD_Ethyl] ({CH2CO}-[Abu][NMeA][dL]P[NEtG]L[dNMeA]L[NMeC]-OEt; thioether N-9) it is 0.012 ×10⁻⁶ cm/s.
The figure for `CCOC(=O)[C@@H]1CSCC(=O)N[C@@H](CC)C(=O)N(C)[C@@H](C)C(=O)N[C@H](CC(C)C)C(=O)N2CCC[C@H]2C(=O)N(CC)CC(=O)N[C@@H](CC(C)C)C(=O)N(C)[C@@H](C)C(=O)N[C@@H](CC(C)C)C(=O)N1C` [JF206_ALL_LDLL_Ethyl] ({CH2CO}-[Abu][NMeA][dL]P[NEtG]L[NMeA]L[NMeC]-OEt; thioether N-9) is 0.015 ×10⁻⁶ cm/s.
With `CCOC(=O)[C@@H]1CSCC(=O)N[C@@H](CC)C(=O)N(C)[C@@H](C)C(=O)N[C@@H](CC(C)C)C(=O)N2CCC[C@H]2C(=O)N(CC)CC(=O)N[C@H](CC(C)C)C(=O)N(C)[C@H](C)C(=O)N[C@@H](CC(C)C)C(=O)N1C` [JF206_ALL_LLDD_Ethyl] ({CH2CO}-[Abu][NMeA]LP[NEtG][dL][dNMeA]L[NMeC]-OEt; thioether N-9) the figure was 0.00468 ×10⁻⁶ cm/s; with `CCOC(=O)[C@@H]1CSCC(=O)N[C@@H](CC)C(=O)N(C)[C@@H](C)C(=O)N[C@@H](CC(C)C)C(=O)N2CCC[C@H]2C(=O)N(CC(C)C)CC(=O)N[C@H](CC(C)C)C(=O)N(C)[C@H](C)C(=O)N[C@@H](CC(C)C)C(=O)N1C` [JF206_ALL_LLDD_Isobutyl] ({CH2CO}-[Abu][NMeA]LP[Nleu][dL][dNMeA]L[NMeC]-OEt; thioether N-9), 0.182 ×10⁻⁶ cm/s.
`CCOC(=O)[C@@H]1CSCC(=O)N[C@@H](CC)C(=O)N(C)[C@@H](C)C(=O)N[C@@H](CC(C)C)C(=O)N2CCC[C@H]2C(=O)N(CC)CC(=O)N[C@H](CC(C)C)C(=O)N(C)[C@@H](C)C(=O)N[C@@H](CC(C)C)C(=O)N1C` [JF206_ALL_LLDL_Ethyl] ({CH2CO}-[Abu][NMeA]LP[NEtG][dL][NMeA]L[NMeC]-OEt; thioether N-9): the Papp at 10 µM came to 0.003 ×10⁻⁶ cm/s.
The figure for `CCOC(=O)[C@@H]1CSCC(=O)N[C@@H](CC)C(=O)N(C)[C@@H](C)C(=O)N[C@@H](CC(C)C)C(=O)N2CCC[C@H]2C(=O)N(CC(C)C)CC(=O)N[C@H](CC(C)C)C(=O)N(C)[C@@H](C)C(=O)N[C@@H](CC(C)C)C(=O)N1C` [JF206_ALL_LLDL_Isobutyl] ({CH2CO}-[Abu][NMeA]LP[Nleu][dL][NMeA]L[NMeC]-OEt; thioether N-9) is 0.093 ×10⁻⁶ cm/s.
With `CCOC(=O)[C@@H]1CSCC(=O)N[C@@H](CC)C(=O)N(C)[C@@H](C)C(=O)N[C@@H](CC(C)C)C(=O)N2CCC[C@H]2C(=O)N(CC)CC(=O)N[C@@H](CC(C)C)C(=O)N(C)[C@H](C)C(=O)N[C@@H](CC(C)C)C(=O)N1C` [JF206_ALL_LLLD_Ethyl] ({CH2CO}-[Abu][NMeA]LP[NEtG]L[dNMeA]L[NMeC]-OEt; thioether N-9) the figure was 0.014 ×10⁻⁶ cm/s; with `CCOC(=O)[C@@H]1CSCC(=O)N[C@@H](CC)C(=O)N(C)[C@@H](C)C(=O)N[C@@H](CC(C)C)C(=O)N2CCC[C@H]2C(=O)N(CC(C)C)CC(=O)N[C@@H](CC(C)C)C(=O)N(C)[C@H](C)C(=O)N[C@@H](CC(C)C)C(=O)N1C` [JF206_ALL_LLLD_Isobutyl] ({CH2CO}-[Abu][NMeA]LP[Nleu]L[dNMeA]L[NMeC]-OEt; thioether N-9), 0.139 ×10⁻⁶ cm/s.
With `CCOC(=O)[C@@H]1CSCC(=O)N[C@@H](CC)C(=O)N(C)[C@@H](C)C(=O)N[C@@H](CC(C)C)C(=O)N2CCC[C@H]2C(=O)N(CC)CC(=O)N[C@@H](CC(C)C)C(=O)N(C)[C@@H](C)C(=O)N[C@@H](CC(C)C)C(=O)N1C` [JF206_ALL_LLLL_Ethyl] ({CH2CO}-[Abu][NMeA]LP[NEtG]L[NMeA]L[NMeC]-OEt; thioether N-9) the figure was 0.678 ×10⁻⁶ cm/s.
